Data: US12422427B2, “Compounds for treatment of diseases and methods of screening therefor” (Max-Planck-Gesellschaft zur Förderung der Wissenschaften …, priority 2018, dated 2025)

Tests used:
[1] = system: HeLa cells; assay: 15N lipoamide uptake by HeLa cells measured by NMR; type: in vitro ADME
Experimental: The concentration of lipoamide relative to protein required for an effect on condensate liquidity in vitro was higher than the EC50 on cells, on the order of 100 μM lipoamide with 1 μM FUS (FIGS. 1D-1E, FIGS. 5A-5E). In cells, FUS concentrations are high for a protein (low μM)^41 and the cellular EC50 was on the order of 10 μM (FIG. 2A, FIG. 3D). We also saw inverse effects of lipoamide on FUS-containing condensates in vitro (more, larger condensates) and in cells (fewer stress granules). To reconcile this difference and to understand the relevance of the effects in vitro in cells, we wanted to know the actual concentrations of compounds in cells. In principle, isotopic labelling allows direct monitoring of isotopically-labelled compounds even in complex environment through appropriate spectroscopy. To use this approach, ^15N-labelled lipoamide (FIG. 7A) was synthesised.
Uptake of ^15N lipoamide by cells from the medium was quantified by NMR following incubation of lipoamide at 37° C. for 1 h either in the absence or presence of HeLa cells (FIG. 7B). Cellular uptake was determined by calculating the difference between medium incubated with cells or without cells for combinations of either R-(+) or (±)-lipoamide and either unstressed or stressed cells (FIG. 7C). For one sample, stressed cells with R-(+)-lipoamide, we confirmed that strong signal from the cell fraction was consistent with uptake of a large proportion of lipoamide (FIG. 7C). Both R-(+) and ±-lipoamide measurements indicated uptake of 35±11% (n=3 and 2, respectively) of the lipoamide present in the medium. No significant difference was observed either for uptake of R-(+) compared to (±)-lipoamide or stressed compared to unstressed cells (FIG. 7D).
For analysis of ^15N lipoamide uptake by cells HeLa cells expressing FUS GFP were grown in 6 well plates to 10^6 cells/well in DMEM supplemented with 10% FCS. To simultaneously stress and treat cells, the medium was replaced with 0.6 ml medium supplemented with potassium arsenate and 100 μM ^15N racemic or R-(+)-lipoamide for 1 h at 37° C. High concentrations of compound were used to maximise the signal. […] Wells were prepared for all combinations of no compound (1% DMSO control), ^15N […] or ^15N R-(+)-lipoamide, with or without potassium arsenate and with or without cells. ^1H detected ^15N edited ^1H sensitivity enhanced HSQ was used to quantify ^15N lipoamide concentration (see Supplementary Information). Solvent, pH and temperature sensitivity of the primary amide proton chemical shifts were determined using dummy samples assembled from the appropriate solvent and added compounds.
^1H detected ^15N edited ^1H sensitivity enhanced HSQC NMR (referred to here as (^15N) ^1H) spectra were acquired on a narrow bore Varian solution state spectrometer operating with a fixed field strength of 14.1 T, equipped with a room-temperature probe.
The free induction decay was recorded for an acquisition time of 0.0624 and a sweep with of 8 kHz recorded over 1000 and a recovery delays of 1 s. […] The J coupling between the amide protons and the ^15N in H2O samples was determined to be 96 Hz, and so the transfer times of 1/4 J in the INEPT portions of the pulse sequence were set to 2.6 ms. […]

[2] = system: HeLa, iPS and motor neuron cells; assay: Tolerance by cells in culture; type: cell-based

- uptake of the lipoamide present in the medium ([1]; 100 μM, 1 h, 37° C., stressed or unstressed HeLa cells): 35%
SMILES: NC(=O)CCCCC1CCSS1 (racemic) [lipoamide, 5-(1,2-dithiolan-3-yl)pentanamide]
- metabolism or chemical modification in cells ([1]; NMR signal from the cell sample): no evidence for metabolism or any other chemical modification
- tolerance by HeLa, iPS and motor neuron cells in culture [2]: well-tolerated
